Patent US20140017673A1, “METHOD FOR ENUMERATING EUKARYOTIC CELL MICRONUCLEI WITH AN EMPHASIS ON SIMULTANEOUSLY ACQUIRING CYTOTOXICITY AND MODE OF ACTION INFORMATION” (priority 2012, published 2014)
Structures can show the parent of a compound that is named as a salt. Where two headings read alike, the source gives them in different places. Each block holds one molecule with its values, some of them ahead of it.

Key:
[1] = system: TK6 cells; details: for Avg. % EMA+ / Avg. % M / Avg. % RS / Avg. M as % G2/M / Avg. % MN: human
[2] = system: TK6 cells; assay: Treatment with demecolcine and assessment of anti-H3-P performance (metaphase events by flow cytometry); type: cell-based, human; details: 0.05 ng/ml, 5 hours
Protocol: TK6 cells were treated with 0 or 0.05 ng demecolcine/ml in T25 tissue culture flasks. At the start of treatment, cells were at 5×10^5/ml in a volume of 20 ml per flask. Flasks were incubated at 37° C., 5% CO2, and in a humid atmosphere. After 5 hours, flasks were removed and 1 ml aliquots were placed in to 15 ml centrifuge tubes. Cells were collected via centrifugation, and supernatants aspirated such that approximately 25 μl of supernatant remained per tube. Cells were gently resuspended with tapping. 300 μl “Lysis Solution 1” was added slowly to each tube (approximately 5 seconds per sample). […]
Samples were gently pipetted to resuspend the particles. […] SYTOX®-associated fluorescence emission was collected in the FITC channel, EMA-associated fluorescence was collected in the PerCP-Cy5 channel, and anti-H3-P-Alexa 647 associated fluorescence was collected in the APC channel. Events were triggered on FITC fluorescence. The flow cytometry gating strategy that was developed for this scoring application required events to meet each of several separate criteria before they were scored as nuclei, MN, chromatin debris, or metaphase chromosomes. […]
In this experiment, TK6 cells were treated with 0 or 0.05 ng/ml demecolcine, a metaphase blocking agent. […] However, the anti-H3-P associated fluorescence signal is able to differentiate between G2 and metaphase chromosomes. […]

[3] = system: TK6 cells; assay: Polyploidy as an aneugenic signature (flow cytometry, 96-well plate); details: 0.025 μg paclitaxel/ml, approximately 24 hrs

Structure (SMILES): CN[C@H]1CCc2cc(OC)c(OC)c(OC)c2-c2ccc(OC)c(=O)cc21 [demecolcine, Demecolcine]
frequency of 4n anti-H3-P-positive events, FIG. 2 [2]: greatly increased

Structure (SMILES): COC(=O)Nc1nc2ccccc2[nH]1 [Carbendazim]
Avg. % EMA+ ([1]; 0.125 μg/ml): 2.3%
Avg. % M ([1]; 0.125 μg/ml): 1.6%
Avg. % MN ([1]; 0.125 μg/ml): 0.8%
Avg. % RS ([1]; 0.125 μg/ml): 96.9%
Avg. M as % G2/M ([1]; 0.125 μg/ml): 6.1%
Avg. % EMA+ ([1]; 0.5 μg/ml): 6.4%
Avg. % M ([1]; 0.5 μg/ml): 1.6%
Avg. % MN ([1]; 0.5 μg/ml): 3.8%
Avg. % RS ([1]; 0.5 μg/ml): 71.2%
Avg. M as % G2/M ([1]; 0.5 μg/ml): 10.3%
Avg. % EMA+ ([1]; 1 μg/ml): 10.0%
Avg. % M ([1]; 1 μg/ml): 5.6%
Avg. % MN ([1]; 1 μg/ml): 14.7%
Avg. % RS ([1]; 1 μg/ml): 49.7%
Avg. M as % G2/M ([1]; 1 μg/ml): 24.9%
Avg. % EMA+ ([1]; 2 μg/ml): 12.0%
Avg. % M ([1]; 2 μg/ml): 5.4%
Avg. % MN ([1]; 2 μg/ml): 22.3%
Avg. % RS ([1]; 2 μg/ml): 43.3%
Avg. M as % G2/M ([1]; 2 μg/ml): 18.5%

Structure (SMILES): CC[C@]1(O)C[C@@H]2CN(CCc3c([nH]c4ccccc34)[C@@](C(=O)OC)(c3cc4c(cc3OC)N(C)[C@H]3[C@@](O)(C(=O)OC)[C@H](OC(C)=O)[C@]5(CC)C=CCN6CC[C@]43[C@@H]65)C2)C1 [Vinblastine sulfate]
Avg. % EMA+ ([1]; 0.1 μg/ml): 2.0%
Avg. % M ([1]; 0.1 μg/ml): 1.8%
Avg. % MN ([1]; 0.1 μg/ml): 0.7%
Avg. % RS ([1]; 0.1 μg/ml): 88.0%
Avg. M as % G2/M ([1]; 0.1 μg/ml): 8.6%
Avg. % EMA+ ([1]; 0.2 μg/ml): 2.7%
Avg. % M ([1]; 0.2 μg/ml): 1.5%
Avg. % MN ([1]; 0.2 μg/ml): 1.6%
Avg. % RS ([1]; 0.2 μg/ml): 79.6%
Avg. M as % G2/M ([1]; 0.2 μg/ml): 9.0%
Avg. % EMA+ ([1]; 0.4 μg/ml): 4.0%
Avg. % M ([1]; 0.4 μg/ml): 2.7%
Avg. % MN ([1]; 0.4 μg/ml): 3.3%
Avg. % RS ([1]; 0.4 μg/ml): 70.6%
Avg. M as % G2/M ([1]; 0.4 μg/ml): 17.1%
Avg. % EMA+ ([1]; 0.8 μg/ml): 5.8%
Avg. % M ([1]; 0.8 μg/ml): 7.2%
Avg. % MN ([1]; 0.8 μg/ml): 7.5%
Avg. % RS ([1]; 0.8 μg/ml): 48.0%
Avg. M as % G2/M ([1]; 0.8 μg/ml): 32.0%
Avg. % EMA+ ([1]; 1.6 μg/ml): 8.8%
Avg. % M ([1]; 1.6 μg/ml): 4.4%
Avg. % MN ([1]; 1.6 μg/ml): 12.6%
Avg. % RS ([1]; 1.6 μg/ml): 37.6%
Avg. M as % G2/M ([1]; 1.6 μg/ml): 14.1%

Structure (SMILES): COc1cc2c(c(OC)c1OC)-c1ccc(OC)c(=O)cc1[C@@H](NC(C)=O)CC2 [Colchicine]
cytotoxicity (dose-dependent reductions to RS), FIG. 3 [1]: cytotoxic
genotoxicity (increased MN observed), FIG. 3 dose-response [1]: genotoxic

Structure (SMILES): CC(=O)O[C@H]1C(=O)[C@@]2(C)[C@H]([C@H](OC(=O)c3ccccc3)[C@]3(O)C[C@H](OC(=O)[C@H](O)[C@@H](NC(=O)c4ccccc4)c4ccccc4)C(C)=C1C3(C)C)[C@]1(OC(C)=O)CO[C@@H]1C[C@@H]2O [Paclitaxel]
Avg. % EMA+ ([1]; 1.6 μg/ml): 3.7%
Avg. % M ([1]; 1.6 μg/ml): 1.7%
Avg. % MN ([1]; 1.6 μg/ml): 1.5%
Avg. M as % G2/M ([1]; 1.6 μg/ml): 7.1%
Avg. % EMA+ ([1]; 2.4 μg/ml): 7.3%
Avg. % M ([1]; 2.4 μg/ml): 2.2%
Avg. % MN ([1]; 2.4 μg/ml): 4.4%
Avg. M as % G2/M ([1]; 2.4 μg/ml): 9.7%
Avg. % EMA+ ([1]; 3.3 μg/ml): 10.0%
Avg. % M ([1]; 3.3 μg/ml): 3.4%
Avg. % MN ([1]; 3.3 μg/ml): 9.2%
Avg. M as % G2/M ([1]; 3.3 μg/ml): 12.2%
Avg. % EMA+ ([1]; 4.9 μg/ml): 12.3%
Avg. % M ([1]; 4.9 μg/ml): 4.4%
Avg. % MN ([1]; 4.9 μg/ml): 12.5%
Avg. M as % G2/M ([1]; 4.9 μg/ml): 11.3%
Avg. % EMA+ ([1]; 6.5 μg/ml): 13.2%
Avg. % M ([1]; 6.5 μg/ml): 4.6%
Avg. % MN ([1]; 6.5 μg/ml): 15.8%
Avg. M as % G2/M ([1]; 6.5 μg/ml): 10.2%
induction of polyploid nuclei (8n), FIG. 6 [3]: robust induction

The next lines start with the values.

Avg. % EMA+ ([1]; 0.375 μg/ml): 3.0%
Avg. % M ([1]; 0.375 μg/ml): 1.9%
Avg. % RS ([1]; 0.375 μg/ml): 96.6%
Avg. M as % G2/M ([1]; 0.375 μg/ml): 6.0%
Avg. % EMA+ ([1]; 0.75 μg/ml): 2.6%
Avg. % M ([1]; 0.75 μg/ml): 1.8%
Avg. % RS ([1]; 0.75 μg/ml): 99.5%
Avg. M as % G2/M ([1]; 0.75 μg/ml): 5.8%
Avg. % EMA+ ([1]; 3 μg/ml): 8.2%
Avg. % M ([1]; 3 μg/ml): 3.0%
Avg. % RS ([1]; 3 μg/ml): 64.9%
Avg. M as % G2/M ([1]; 3 μg/ml): 19.4%
Avg. % EMA+ ([1]; 6 μg/ml): 13.5%
Avg. % M ([1]; 6 μg/ml): 5.8%
Avg. % RS ([1]; 6 μg/ml): 46.6%
Avg. M as % G2/M ([1]; 6 μg/ml): 26.4%
Structure (SMILES): COC1=CC(=O)C[C@@H](C)[C@]12Oc1c(Cl)c(OC)cc(OC)c1C2=O [Griseofulvin]

Avg. % EMA+ ([1]; 0.125 μg/ml): 3.3%
Avg. % M ([1]; 0.125 μg/ml): 1.9%
Avg. % MN ([1]; 0.125 μg/ml): 0.6%
Avg. % RS ([1]; 0.125 μg/ml): 91.9%
Avg. M as % G2/M ([1]; 0.125 μg/ml): 7.1%
Avg. % EMA+ ([1]; 0.5 μg/ml): 5.1%
Avg. % M ([1]; 0.5 μg/ml): 2.1%
Avg. % MN ([1]; 0.5 μg/ml): 2.7%
Avg. % RS ([1]; 0.5 μg/ml): 72.1%
Avg. M as % G2/M ([1]; 0.5 μg/ml): 8.4%
Avg. % EMA+ ([1]; 1 μg/ml): 8.2%
Avg. % M ([1]; 1 μg/ml): 3.4%
Avg. % MN ([1]; 1 μg/ml): 7.9%
Avg. % RS ([1]; 1 μg/ml): 53.1%
Avg. M as % G2/M ([1]; 1 μg/ml): 13.5%
Structure (SMILES): CC[C@]1(O)C[C@H]2CN(CCc3c([nH]c4ccccc34)[C@@](C(=O)OC)(c3cc4c(cc3OC)N(C=O)[C@H]3[C@@](O)(C(=O)OC)[C@H](OC(C)=O)[C@]5(CC)C=CCN6CC[C@]43[C@@H]65)C2)C1 [Vincristine sulfate]

Avg. % EMA+ ([1]; 0.5 μg/ml): 2.4%
Avg. % M ([1]; 0.5 μg/ml): 1.6%
Avg. % MN ([1]; 0.5 μg/ml): 0.4%
Avg. % RS ([1]; 0.5 μg/ml): 100.9%
Avg. M as % G2/M ([1]; 0.5 μg/ml): 5.4%
Avg. % EMA+ ([1]; 0.9 μg/ml): 2.3%
Avg. % M ([1]; 0.9 μg/ml): 1.6%
Avg. % MN ([1]; 0.9 μg/ml): 0.5%
Avg. % RS ([1]; 0.9 μg/ml): 97.1%
Avg. M as % G2/M ([1]; 0.9 μg/ml): 5.9%
Avg. % EMA+ ([1]; 3.8 μg/ml): 5.8%
Avg. % M ([1]; 3.8 μg/ml): 1.7%
Avg. % MN ([1]; 3.8 μg/ml): 0.9%
Avg. % RS ([1]; 3.8 μg/ml): 65.7%
Avg. M as % G2/M ([1]; 3.8 μg/ml): 4.7%
Avg. % EMA+ ([1]; 7.5 μg/ml): 13.7%
Avg. % M ([1]; 7.5 μg/ml): 1.0%
Avg. % MN ([1]; 7.5 μg/ml): 1.9%
Avg. % RS ([1]; 7.5 μg/ml): 44.3%
Avg. M as % G2/M ([1]; 7.5 μg/ml): 3.9%
Structure (SMILES): NC(=O)NO [HU, Hydroxyurea]

Avg. % EMA+ ([1]; 0.005 μg/ml): 2.3%
Avg. % M ([1]; 0.005 μg/ml): 1.6%
Avg. % RS ([1]; 0.005 μg/ml): 83.3%
Avg. M as % G2/M ([1]; 0.005 μg/ml): 5.7%
Avg. % EMA+ ([1]; 0.01 μg/ml): 3.7%
Avg. % M ([1]; 0.01 μg/ml): 1.4%
Avg. % RS ([1]; 0.01 μg/ml): 69.6%
Avg. M as % G2/M ([1]; 0.01 μg/ml): 5.2%
Avg. % EMA+ ([1]; 0.02 μg/ml): 5.3%
Avg. % M ([1]; 0.02 μg/ml): 1.2%
Avg. % RS ([1]; 0.02 μg/ml): 52.6%
Avg. M as % G2/M ([1]; 0.02 μg/ml): 3.8%
Structure (SMILES): COc1cc([C@@H]2c3cc4c(cc3[C@@H](O[C@@H]3O[C@@H]5CO[C@@H](C)O[C@H]5[C@H](O)[C@H]3O)[C@H]3COC(=O)[C@H]23)OCO4)cc(OC)c1O [Etoposide]
